From PubChem BioAssay (NCI) come the findings set out here.

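48-hour exposure; five concentrations; linearly interpolated endpoints. TGI: concentration producing complete growth inhibition.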 Bounds are passed on as bounds.

Some test systems named below: 786-0 renal; A549 NSCLC; CCRF-CEM leukemia; HCT-116 colon; HOP-62 NSCLC; SF-268 CNS; SK-MEL-5 melanoma; UACC-257 melanoma.
Common to all, as to assay: DTP human tumour cell line panel, 48 h

As to `O=C(/C=C/c1ccccc1Cl)c1ccc(Cl)c(Cl)c1`, the TGI with 786-0 renal was 29.8 µM; with A549 NSCLC, 40.8 µM; with CCRF-CEM leukemia, 81.8 µM; in the experiment on HCT-116 colon it was 23.6 µM; with HOP-62 NSCLC, 57.6 µM; with SF-268 CNS, 33.7 µM. Moreover, the values for the TGI in the experiment with SK-MEL-5 melanoma and in the experiment on UACC-257 melanoma were 36.1 µM and 40.2 µM, respectively.

For the compound `COc1ccc2nc3cc(Cl)ccc3c(Sc3ccccc3[N+](=O)[O-])c2c1`, the TGI in the experiment on 786-0 renal, with A549 NSCLC, in the experiment with CCRF-CEM leukemia, in the experiment on HCT-116 colon, in the experiment with HOP-62 NSCLC and in the experiment on SF-268 CNS was > 100 µM throughout. Moreover, the TGI with SK-MEL-5 melanoma and in the experiment on UACC-257 melanoma was > 100 µM throughout.

On to `CC(=O)OC1COC(n2c(=S)n(-c3ccc(C)cc3)c(=O)c3ccccc32)C(OC(C)=O)C1OC(C)=O` (stereo unspecified), for which the TGI in the experiment on 786-0 renal, in the experiment on A549 NSCLC, with HCT-116 colon, with HOP-62 NSCLC, in the experiment on SF-268 CNS and with SK-MEL-5 melanoma was > 100 µM each time. Further, the TGI with UACC-257 melanoma was > 100 µM.

On to `CCOC(=O)COc1cccc2c1C(=O)CCO2`, for which the TGI with 786-0 renal, with A549 NSCLC, in the experiment on CCRF-CEM leukemia, in the experiment with HCT-116 colon, in the experiment with HOP-62 NSCLC and in the experiment with SF-268 CNS was > 100 µM throughout. Also, the TGI in the experiment with SK-MEL-5 melanoma and in the experiment on UACC-257 melanoma was > 100 µM in each case.

As to `COC(=O)[C@@]12C3=NO[C@]1(C(=O)OC)C(O[Si](C)(C)C(C)(C)C)[C@H]1OC(C)(C)O[C@H]1[C@@H]2C(OCc1ccccc1)CC3` (stereo partly specified), the TGI in the experiment on 786-0 renal, with A549 NSCLC, with CCRF-CEM leukemia, with HCT-116 colon and with SK-MEL-5 melanoma was > 100 µM each time.

Turning to `COc1ccc(/C=C\c2cc(OC)c3c(c2)OCO3)c(O)c1O`, the TGI in the experiment on 786-0 renal is 14.7 µM; in the experiment with A549 NSCLC it was > 100 µM; in the experiment on CCRF-CEM leukemia, 14.3 µM; with HCT-116 colon it was 17.7 µM; in the experiment on HOP-62 NSCLC, 64.5 µM; with SF-268 CNS, 18.8 µM. In addition, the concentration for total growth inhibition (TGI) is 6.32 µM in the experiment with SK-MEL-5 melanoma and 53.4 µM in the experiment on UACC-257 melanoma.

For the compound `O=C(O)C(Cc1ccccc1)N1C(=O)N/C(=C\c2ccc(F)cc2)C1=O` (stereo unspecified), the TGI in the experiment with 786-0 renal, with A549 NSCLC, in the experiment on CCRF-CEM leukemia, in the experiment on HCT-116 colon, with HOP-62 NSCLC and in the experiment on SK-MEL-5 melanoma was > 100 µM in each case. Further, in the experiment with UACC-257 melanoma, the TGI was > 100 µM.

Turning to `CC(=O)OC(C)C(=O)C1c2cccc(O)c2C(=O)c2c(O)cc(C)cc21` (stereo unspecified), the TGI in the experiment with 786-0 renal turned out to be 2.28 µM; with A549 NSCLC it was 1.11 µM; in the experiment with CCRF-CEM leukemia it was 6.05 µM; with HCT-116 colon, 1.09 µM; in the experiment with HOP-62 NSCLC, 1.01 µM; with SF-268 CNS it was 1.5 µM. Moreover, the TGI with SK-MEL-5 melanoma was found to be 1.31 µM; in the experiment with UACC-257 melanoma, 1.4 µM.

Consider `COc1ccc(NC(=O)c2cc(OC)cc(OC)c2)cc1`, for which the TGI in the experiment on 786-0 renal, in the experiment on A549 NSCLC, in the experiment on CCRF-CEM leukemia, with HCT-116 colon, with HOP-62 NSCLC and in the experiment on SF-268 CNS was > 100 µM in each case. In addition, the concentration for total growth inhibition (TGI) in the experiment on SK-MEL-5 melanoma and in the experiment with UACC-257 melanoma was > 100 µM throughout.

Regarding `O=C1C2=C(SCCS2)C(=O)c2ccccc21`, the TGI in the experiment on 786-0 renal is 3.12 µM; with A549 NSCLC, 3.83 µM; with CCRF-CEM leukemia, 4.2 µM; in the experiment with HCT-116 colon it was 3.04 µM; in the experiment with HOP-62 NSCLC it was 2.9 µM; in the experiment with SF-268 CNS, 3.05 µM. Moreover, the TGI in the experiment on SK-MEL-5 melanoma was determined as 3.09 µM; with UACC-257 melanoma it was 3.45 µM.

Regarding `N#CC(C#N)=c1ccc(=C2NCC3CCCN23)cc1` (stereo unspecified), the TGI with 786-0 renal, with A549 NSCLC, in the experiment with CCRF-CEM leukemia, in the experiment on HCT-116 colon, in the experiment on HOP-62 NSCLC and with SF-268 CNS was > 100 µM in each case. In addition, the TGI in the experiment on SK-MEL-5 melanoma and with UACC-257 melanoma was > 100 µM each time.

Take `COc1ccc2c(c1)C1(C=N2)CCN(C(C)=O)CC1`: the TGI in the experiment on 786-0 renal, with A549 NSCLC, in the experiment on CCRF-CEM leukemia, with HCT-116 colon, in the experiment with HOP-62 NSCLC and with SF-268 CNS was > 100 µM in each case. In addition, the TGI with SK-MEL-5 melanoma and in the experiment with UACC-257 melanoma was > 100 µM throughout.

Regarding `CCN(CC)CC(C(=O)Nc1c(C)cccc1C)/C(C)=N\NC(=O)C[N+](C)(C)C` (stereo unspecified), the concentration for total growth inhibition (TGI) in the experiment on 786-0 renal, in the experiment with A549 NSCLC, with HCT-116 colon, in the experiment on HOP-62 NSCLC, with SF-268 CNS and in the experiment with SK-MEL-5 melanoma was > 100 µM throughout. In the experiment on UACC-257 melanoma, the TGI was > 100 µM.

Turning to `CCNC1C2(CCCCC2)NC(=O)C12CCCCC2` (stereo unspecified), the TGI in the experiment with 786-0 renal, in the experiment on A549 NSCLC, in the experiment with CCRF-CEM leukemia, with HCT-116 colon, in the experiment with HOP-62 NSCLC and with SK-MEL-5 melanoma was > 100 µM each time. Further, in the experiment with UACC-257 melanoma, the TGI was > 100 µM.

For `O=C(CSC(=S)N1CCCCC1)Nc1nc2c(s1)CCCC2`, the TGI in the experiment on 786-0 renal was > 100 µM; with A549 NSCLC it was > 100 µM; in the experiment on CCRF-CEM leukemia, > 100 µM; in the experiment with HCT-116 colon, 32.2 µM; in the experiment on HOP-62 NSCLC it was > 100 µM; in the experiment with SF-268 CNS it was > 100 µM. The figures for the TGI with SK-MEL-5 melanoma and in the experiment on UACC-257 melanoma were 32.9 µM and 57.7 µM, respectively.

As to `CCOC(=O)C1=C(C)CC2C(=O)OC(=O)C2C1(C)C` (stereo unspecified), the TGI with 786-0 renal, in the experiment on A549 NSCLC, with CCRF-CEM leukemia, with SF-268 CNS, in the experiment with SK-MEL-5 melanoma and with UACC-257 melanoma was > 100 µM each time.

Take `NS(=O)(=O)c1ccccc1C(=O)N/N=C(\c1nc2ccc([N+](=O)[O-])cc2[nH]c1=O)C(O)c1ccc([N+](=O)[O-])cc1` (stereo unspecified): the TGI in the experiment with 786-0 renal, in the experiment on A549 NSCLC, in the experiment with CCRF-CEM leukemia, in the experiment on HCT-116 colon, in the experiment with SF-268 CNS and in the experiment on SK-MEL-5 melanoma was > 100 µM throughout. Further, in the experiment on UACC-257 melanoma, the TGI was > 100 µM.

As a reminder, the TGI is the concentration giving total growth inhibition.
